Values joined by “and” are separate entries in the source; they are usually repeats but may differ in a detail not shown here. Equal entries are not always repeated. Where two headings read alike, the source gives them in different places.
How the values were obtained:
IE^d = target: T1, IE^d (Mus musculus, UniProt P01904+P01915); assay: biochemical; format: binding; conditions: Table III; read-out: Capacity to bind purified IE^d, IC50
T1 construct: Various cell lines were used as sources of purified human and mouse class II molecules; endogenous in cells; host or cells: A20
T1 sequence (P01904 26-255): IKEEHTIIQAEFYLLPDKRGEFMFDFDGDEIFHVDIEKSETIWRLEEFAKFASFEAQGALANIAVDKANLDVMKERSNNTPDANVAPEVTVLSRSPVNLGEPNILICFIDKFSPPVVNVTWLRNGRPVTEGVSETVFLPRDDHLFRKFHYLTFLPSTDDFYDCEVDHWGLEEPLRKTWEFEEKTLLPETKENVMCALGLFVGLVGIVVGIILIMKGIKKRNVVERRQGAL
T1 sequence (P01915 27-264 limits assumed): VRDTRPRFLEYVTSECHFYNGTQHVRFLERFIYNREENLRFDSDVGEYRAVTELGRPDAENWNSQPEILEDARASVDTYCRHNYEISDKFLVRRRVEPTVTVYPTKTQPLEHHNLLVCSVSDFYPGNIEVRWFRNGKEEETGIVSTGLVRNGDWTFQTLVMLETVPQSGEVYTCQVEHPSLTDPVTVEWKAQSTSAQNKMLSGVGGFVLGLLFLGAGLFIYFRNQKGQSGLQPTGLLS

IA^s = target: T2, IA^s (Mus musculus, UniProt P06345+P14437); assay: biochemical; format: binding; conditions: Table III; read-out: Capacity to bind purified IA^s, IC50
T2 construct: Various cell lines were used as sources of purified human and mouse class II molecules; endogenous in cells; host or cells: LS102.9
T2 sequence (P14437 1-233): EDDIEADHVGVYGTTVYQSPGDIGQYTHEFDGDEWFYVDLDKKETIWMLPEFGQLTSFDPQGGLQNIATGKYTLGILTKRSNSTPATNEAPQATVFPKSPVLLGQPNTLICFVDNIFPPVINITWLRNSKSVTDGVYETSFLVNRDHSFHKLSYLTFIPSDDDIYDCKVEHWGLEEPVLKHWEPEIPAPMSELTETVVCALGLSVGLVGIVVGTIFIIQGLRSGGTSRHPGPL
T2 sequence (P06345 28-263): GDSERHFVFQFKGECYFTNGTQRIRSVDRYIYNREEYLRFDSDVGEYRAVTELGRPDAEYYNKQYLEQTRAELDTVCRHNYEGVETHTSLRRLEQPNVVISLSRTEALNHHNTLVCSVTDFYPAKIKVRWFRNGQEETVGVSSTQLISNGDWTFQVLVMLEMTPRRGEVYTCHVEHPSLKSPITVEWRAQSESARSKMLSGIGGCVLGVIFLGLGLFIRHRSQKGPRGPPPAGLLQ

IA^k = target: T3, IA^k (Mus musculus, UniProt P01910+P06343); assay: biochemical; format: binding; conditions: Table III; read-out: Capacity to bind purified IA^k, IC50
T3 construct: Various cell lines were used as sources of purified human and mouse class II molecules; endogenous in cells; host or cells: CH12
T3 sequence (P01910 24-256): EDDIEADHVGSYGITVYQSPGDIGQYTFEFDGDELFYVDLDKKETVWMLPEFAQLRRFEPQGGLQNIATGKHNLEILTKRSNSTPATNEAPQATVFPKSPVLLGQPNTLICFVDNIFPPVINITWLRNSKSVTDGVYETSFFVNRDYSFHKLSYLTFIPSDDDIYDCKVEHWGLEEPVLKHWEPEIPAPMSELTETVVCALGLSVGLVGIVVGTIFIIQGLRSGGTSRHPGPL
T3 sequence (P06343 28-263): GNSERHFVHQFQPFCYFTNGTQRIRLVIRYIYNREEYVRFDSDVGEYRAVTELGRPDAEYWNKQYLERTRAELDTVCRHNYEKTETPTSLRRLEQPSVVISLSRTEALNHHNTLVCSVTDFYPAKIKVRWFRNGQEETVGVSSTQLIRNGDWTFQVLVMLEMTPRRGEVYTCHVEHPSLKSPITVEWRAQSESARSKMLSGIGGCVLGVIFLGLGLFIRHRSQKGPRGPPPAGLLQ

DR5 = conditions: read-out: PADRE Class II Binding Affinities DR5, Table IX
DR7 = conditions: read-out: PADRE Class II Binding Affinities DR7, Table IX
DR1 = DR1 (Homo sapiens, UniProt P01903+P01911, A100R/D57E/F55L/F60I/F76Y/I96L/L162R/M171V/P40L/Q125E/R42F/V115G/Y59C); assay: biochemical
DR4w4 = DR4w4 (Homo sapiens, UniProt P01903+P01911, A100K/A169T/F76Y/I96L/K127E/L162R/M171V/N62H/P40V/Q125Y/R42H/S133A/S149N/S66Y/V115G/V209L/W38E); assay: biochemical
DR2w2a = DR2w2a (Homo sapiens, UniProt P01903+Q30154); assay: biochemical; conditions: PADRE Class II Binding Affinities DR2w282, Table IX
Chain of DR2w2a (P01903 26-254): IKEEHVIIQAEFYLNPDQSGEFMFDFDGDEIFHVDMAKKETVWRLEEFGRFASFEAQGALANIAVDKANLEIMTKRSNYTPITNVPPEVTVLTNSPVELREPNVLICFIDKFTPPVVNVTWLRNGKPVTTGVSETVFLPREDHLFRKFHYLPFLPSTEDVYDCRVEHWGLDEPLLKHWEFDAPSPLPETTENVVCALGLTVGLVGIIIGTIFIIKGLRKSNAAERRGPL
Chain of DR2w2a (Q30154 30-266): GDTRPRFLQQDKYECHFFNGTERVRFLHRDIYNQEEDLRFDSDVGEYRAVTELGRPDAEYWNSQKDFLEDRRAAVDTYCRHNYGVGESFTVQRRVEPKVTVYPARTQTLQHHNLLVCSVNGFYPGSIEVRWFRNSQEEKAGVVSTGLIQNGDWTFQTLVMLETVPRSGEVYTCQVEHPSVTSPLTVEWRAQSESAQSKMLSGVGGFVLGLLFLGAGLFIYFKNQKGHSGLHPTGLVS

DR3 = DR3 (Homo sapiens, UniProt P01903+P01911, A100K/A102G/A103R/A169T/F55Y/I96L/K41T/L162R/M171V/P40S/Q125H/Q178H/Q39Y/R42S/S66N/T106N/T262R/W38E/Y61H); assay: biochemical; conditions: PADRE Class II Binding Affinities DR3, Table IX
human PBMC T cell lines = format: cell-based
IA^b = target: T4, IA^b (Mus musculus, UniProt P14434+P14483); assay: biochemical; format: binding
T4 construct: Various cell lines were used as sources of purified human and mouse class II molecules; endogenous in cells; host or cells: DB27.4
T4 sequence (P14434 24-256): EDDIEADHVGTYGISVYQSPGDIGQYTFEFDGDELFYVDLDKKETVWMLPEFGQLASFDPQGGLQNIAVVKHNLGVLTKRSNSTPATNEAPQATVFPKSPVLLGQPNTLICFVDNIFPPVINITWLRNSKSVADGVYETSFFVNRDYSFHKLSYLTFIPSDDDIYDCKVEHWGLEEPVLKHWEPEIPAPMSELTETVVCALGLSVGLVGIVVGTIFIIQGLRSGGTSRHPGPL
T4 sequence (P14483 28-265): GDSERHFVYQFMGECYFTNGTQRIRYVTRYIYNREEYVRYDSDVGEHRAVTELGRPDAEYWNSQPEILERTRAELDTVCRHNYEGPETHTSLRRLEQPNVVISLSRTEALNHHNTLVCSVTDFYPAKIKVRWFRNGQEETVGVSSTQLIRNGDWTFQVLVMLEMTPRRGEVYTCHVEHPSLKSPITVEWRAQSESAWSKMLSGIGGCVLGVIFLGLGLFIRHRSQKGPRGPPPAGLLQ

C57BL/6J (H-2^b+) mice = conditions: mouse, in vivo, sc
[1] = PADRE Class II Binding Affinities DR1, Table IX
[2] = PADRE Class II Binding Affinities DR4w4, Table IX

## CC[C@H](C)[C@H](N)C(=O)N[C@@H](CO)C(=O)N[C@@H](CCC(N)=O)C(=O)N[C@@H](C)C(=O)N[C@H](C(=O)N[C@@H](Cc1c[nH]cn1)C(=O)N[C@@H](C)C(=O)N[C@@H](C)C(=O)N[C@@H](Cc1c[nH]cn1)C(=O)N[C@@H](C)C(=O)N[C@@H](CCC(=O)O)C(=O)N[C@H](C(=O)N[C@@H](CC(N)=O)C(=O)N[C@@H](CCC(=O)O)C(=O)O)[C@@H](C)CC)C(C)C [Ova 323-336, ISQAVHAAHAEINE]
IE^d
  IC50: > 10000 nM
IA^s
  IC50: 1040 nM
IA^k
  IC50: 1000 nM

## CC(C)C[C@H](NC(=O)[C@@H](NC(=O)[C@H](CC(N)=O)NC(=O)[C@H](C)NC(=O)[C@H](CCCNC(=N)N)NC(=O)[C@@H](NC(=O)[C@H](CC1CCCCC1)NC(=O)[C@H](CCCNC(=N)N)NC(=O)[C@@H](C)N)C(C)C)[C@@H](C)O)C(=O)N[C@@H](CCCCN)C(=O)N[C@@H](C)C(=O)N[C@@H](C)C(=O)N[C@H](C)C(N)=O [Peptide 965.06]
DR5
  IC50: 5.6 nM
DR7
  IC50: 73.5 nM
DR1; [1]
  IC50: 0.8 nM
DR4w4; [2]
  IC50: 1.3 nM
DR2w2a
  IC50: 6.4 nM

## CC(C)C[C@H](NC(=O)[C@@H](NC(=O)[C@H](CC(N)=O)NC(=O)[C@H](C)NC(=O)[C@H](CCCCN)NC(=O)[C@@H](NC(=O)[C@H](CC1CCCCC1)NC(=O)[C@H](CCCCN)NC(=O)[C@@H](C)N)C(C)C)[C@@H](C)O)C(=O)N[C@@H](CCCCN)C(=O)N[C@@H](C)C(=O)N[C@@H](C)C(=O)N[C@H](C)C(N)=O [Peptide 965.011]
DR5
  IC50: 11.8 nM
DR5; listed as 965.012
  IC50: 2.2 nM
DR7; listed as 965.012
  IC50: 781 nM
DR1; [1]
  IC50: 1.5 nM and 1.3 nM
DR3
  IC50: 592 nM and 4590 nM
DR2w2a
  IC50: 12.5 nM and 10.5 nM

## CC(C)C[C@H](NC(=O)[C@@H](NC(=O)[C@H](Cc1ccc(O)cc1)NC(=O)[C@H](C)NC(=O)[C@H](Cc1c[nH]c2ccccc12)NC(=O)[C@@H](NC(=O)[C@H](CC1CCCCC1)NC(=O)[C@H](CCCCN)NC(=O)[C@@H](C)N)C(C)C)[C@@H](C)O)C(=O)N[C@@H](CCCCN)C(=O)N[C@@H](C)C(=O)N[C@@H](C)C(=O)N[C@H](C)C(N)=O [Peptide 965.041]
DR5
  IC50: 4.7 nM
DR1; [1]
  IC50: 0.5 nM
DR4w4; [2]
  IC50: 0.5 nM
DR2w2a
  IC50: 2.5 nM

## CC(C)C[C@H](NC(=O)[C@@H](NC(=O)[C@@H](NC(=O)[C@H](C)NC(=O)[C@H](Cc1c[nH]c2ccccc12)NC(=O)[C@@H](NC(=O)[C@H](CC1CCCCC1)NC(=O)[C@H](CCCCN)NC(=O)[C@@H](C)N)C(C)C)C(C)C)[C@@H](C)O)C(=O)N[C@@H](CCCCN)C(=O)N[C@@H](C)C(=O)N[C@@H](C)C(=O)N[C@H](C)C(N)=O [Peptide 965.042]
DR1; [1]
  IC50: 0.2 nM
DR4w4; [2]
  IC50: 1 nM
DR2w2a
  IC50: 9.5 nM

## CC(C)C[C@H](NC(=O)[C@@H](NC(=O)[C@H](Cc1c[nH]c2ccccc12)NC(=O)[C@H](C)NC(=O)[C@H](Cc1ccc(O)cc1)NC(=O)[C@@H](NC(=O)[C@H](CC1CCCCC1)NC(=O)[C@H](CCCCN)NC(=O)[C@@H](C)N)C(C)C)[C@@H](C)O)C(=O)N[C@@H](CCCCN)C(=O)N[C@@H](C)C(=O)N[C@@H](C)C(=O)N[C@H](C)C(N)=O [Peptide 965.051]
DR5
  IC50: 5.7 nM
DR5; listed as 965.052
  IC50: 6.9 nM
DR7; listed as 965.052
  IC50: 25.5 nM
DR1; [1]
  IC50: 0.5 nM and 0.7 nM
DR4w4; [2]
  IC50: 0.3 nM and 0.8 nM
DR2w2a
  IC50: 7.1 nM and 9 nM

## CC(C)C[C@H](NC(=O)[C@@H](NC(=O)[C@H](Cc1ccc(O)cc1)NC(=O)[C@H](C)NC(=O)[C@H](C)NC(=O)[C@@H](NC(=O)[C@H](CC1CCCCC1)NC(=O)[C@H](CCCCN)NC(=O)[C@@H](C)N)C(C)C)[C@@H](C)O)C(=O)N[C@@H](CCCCN)C(=O)N[C@@H](C)C(=O)N[C@@H](C)C(=O)N[C@H](C)C(N)=O [Peptide 965.091]
Human PBMC T cell lines
  Donors with significant (>10,000 cpm) T cell response / donors tested, second stimulation: 4/5
  Donors with significant (>10,000 cpm) T cell response / donors tested, third stimulation: 4/5
DR5; listed as 965.092
  IC50: 6.5 nM
DR1; PADRE Class II Binding Affinities DR1
  IC50: 0.8 nM
DR1; [1]
  IC50: 0.6 nM
DR3
  IC50: 450 nM and 3210 nM
DR4w4; PADRE Class II Binding Affinities DR4w4
  IC50: 1 nM
DR2w2a
  IC50: 7.4 nM and 6.4 nM

## CC[C@H](C)[C@H](NC(=O)CNC(=O)[C@@H](NC(=O)[C@H](Cc1ccccc1)NC(=O)[C@H](CCCCN)NC(=O)[C@H](CO)NC(=O)[C@H](CC(N)=O)NC(=O)[C@H](C)NC(=O)[C@H](CCCCN)NC(=O)[C@@H](NC(=O)[C@H](Cc1ccc(O)cc1)NC(=O)[C@@H](N)CCC(N)=O)[C@@H](C)CC)[C@@H](C)CC)C(=O)N[C@H](C(=O)N[C@@H](CCC(=O)O)C(=O)O)[C@@H](C)O [Tet Tox 830-843, reference compound]
IA^b
  Capacity to bind purified IA^b, IC50: did not bind IA^b appreciably
Human PBMC T cell lines
  Donors with significant (>10,000 cpm) T cell response / donors tested, second stimulation: 3/12
  Donors with significant (>10,000 cpm) T cell response / donors tested, third stimulation: 7/12
C57BL/6J (H-2^b+) mice
  T cell proliferative response of primed lymph node cells: unable to generate a specific T cell proliferative response

— patent publication US6413935B1, “Induction of immune response against desired determinants” (priority 1993, dated 2002)
